# pEC50, pIC50: −log10 of the molar value.
# What was measured:
# [1] = target: Human immunodeficiency virus type 1 reverse transcriptase (Human immunodeficiency virus 1, UniProt Q72547); assay: Inhibition of wild type HIV1 reverse transcriptase using poly (A)/oligo (dT)15 as template/primer assessed as decrease in biotin-dUTP incorporation after 1 hr by ELISA
# [2] = tested on: Human immunodeficiency virus 2; assay: Antiviral activity against HIV2 ROD infected in human MT4 cells assessed as protection against virus-induced cytopathic effect after 5 days by MTT assay; format: functional, organism-based; details: Human immunodeficiency virus 2, ISOLATE ROD, MT4, 120 h
# [3] = Cytotoxicity against human MT4 cells assessed as reduction in cell viability after 5 days by MTT assay; format: cell-based
# [4] = tested on: Human immunodeficiency virus 1; assay: Antiviral activity against HIV1 harboring reverse transcriptase L100I mutant infected in human MT4 cells assessed as protection against virus-induced cytopathic effect after 5 days by MTT assay; format: functional, organism-based; details: Human immunodeficiency virus 1, MT4, 120 h
# [5] = tested on: Human immunodeficiency virus 1; assay: Antiviral activity against HIV1 harboring reverse transcriptase K103N mutant infected in human MT4 cells assessed as protection against virus-induced cytopathic effect after 5 days by MTT assay; format: functional, organism-based; details: Human immunodeficiency virus 1, MT4, 120 h
# [6] = tested on: Human immunodeficiency virus 1; assay: Antiviral activity against HIV1 harboring reverse transcriptase Y181C mutant infected in human MT4 cells assessed as protection against virus-induced cytopathic effect after 5 days by MTT assay; format: functional, organism-based; details: Human immunodeficiency virus 1, MT4, 120 h
# [7] = tested on: Human immunodeficiency virus 1; assay: Antiviral activity against HIV1 harboring reverse transcriptase Y188L mutant infected in human MT4 cells assessed as protection against virus-induced cytopathic effect after 5 days by MTT assay; format: functional, organism-based; details: Human immunodeficiency virus 1, MT4, 120 h
# [8] = tested on: Human immunodeficiency virus 1; assay: Antiviral activity against HIV1 harboring reverse transcriptase E138K mutant infected in human MT4 cells assessed as protection against virus-induced cytopathic effect after 5 days by MTT assay; format: functional, organism-based; details: Human immunodeficiency virus 1, MT4, 120 h
# [9] = tested on: Human immunodeficiency virus 1; assay: Antiviral activity against HIV1 harboring reverse transcriptase F227L/V106A double mutant infected in human MT4 cells assessed as protection against virus-induced cytopathic effect after 5 days by MTT assay; format: functional, organism-based; details: Human immunodeficiency virus 1, MT4, 120 h
# [10] = tested on: Human immunodeficiency virus 1; assay: Antiviral activity against HIV1 harboring reverse transcriptase RES056 double mutant infected in human MT4 cells assessed as protection against virus-induced cytopathic effect after 5 days by MTT assay; format: functional, organism-based; details: Human immunodeficiency virus 1, MT4, 120 h
# [11] = target: Human immunodeficiency virus type 1 reverse transcriptase (Human immunodeficiency virus 1, UniProt Q72547, K103N/Y181C); assay: Inhibition of HIV1 reverse transcriptase K103N/Y181C double mutant using poly (A)/oligo (dT)15 as template/primer assessed as decrease in biotin-dUTP incorporation after 1 hr by ELISA
# [12] = in vitro; details: human, MT4 cells
# Description: Selectivity index, ratio of CC50 for human MT4 cells to EC50 for wild type HIV1 3B infected in human MT4 cells
# [13] = tested on: Human immunodeficiency virus 1; assay: microbe, parasite or virus in culture; details: Human immunodeficiency virus 1, 3B, MT4, 120 h
# Description: Antiviral activity against wild type HIV1 3B infected in human MT4 cells assessed as protection against virus-induced cytopathic effect after 5 days by MTT assay
SMILES,pIC50 [1],pEC50 [2],CC50 at 120 h [3] [nM],pEC50 [4],pEC50 [5],pEC50 [6],pEC50 [7],pEC50 [8],pEC50 [9],pEC50 [10],pIC50 [11],selectivity ratio [12],pEC50 [13]
Cc1cc(/C=C/C#N)cc(C)c1Oc1cc(NCCN2CCNCC2)nc(Nc2ccc(C#N)cc2)n1,6.36,< 5.44,3650,6.10,7.51,6.21,< 5.44,6.03,< 5.44,6.11,5.95,148,7.61
O=C1Nc2ccc(Cl)cc2[C@@](C#CC2CC2)(C(F)(F)F)O1 [EFAVIRENZ],,,> 6340,7.33,6.96,8.22,6.89,7.31,6.92,6.96,,,
Cc1cc(/C=C/C#N)cc(C)c1Oc1cc(Nc2ccc(C#N)cc2)nc(NC2CC2)c1,6.46,< 4.61,24800,6.77,8.10,6.68,< 4.61,7.57,5.27,5.55,5.27,7400,8.47
COCCNc1cc(Oc2c(C)cc(/C=C/C#N)cc2C)cc(Nc2ccc(C#N)cc2)n1,6.04,< 4.24,58200,6.13,7.55,5.86,4.38,7.24,4.65,5.32,4.74,9330,8.20
Cc1cc(/C=C/C#N)cc(C)c1Oc1cc(NCCN2CCOCC2)nc(Nc2ccc(C#N)cc2)c1,6.13,< 4.38,43200,6.62,8.77,6.66,< 4.36,7.11,5.35,6.37,5.20,25600,8.77
Cc1cc(/C=C/C#N)cc(C)c1Oc1cc(NCC2CCCO2)nc(Nc2ccc(C#N)cc2)c1 (stereo unspecified),6.20,< 4.13,73600,5.59,7.32,5.34,< 4.13,6.77,< 4.13,4.50,4.39,2560,7.54
Cc1cc(/C=C/C#N)cc(C)c1Oc1cc(NC2CC2)nc(Nc2ccc(C#N)cc2)n1,7.30,< 5.52,3000,7.64,8.59,7.46,6.96,8.00,6.46,7.24,6.62,1120,8.57
Cc1cc(/C=C/C#N)cc(C)c1Oc1cc(NCCN2CCN(C)CC2)nc(Nc2ccc(C#N)cc2)c1,5.66,< 5.10,7960,5.69,7.55,5.84,< 5.10,6.11,5.24,5.88,5.20,321,7.61
Cc1cc(/C=C/C#N)cc(C)c1Oc1cc(NCC2CCCO2)nc(Nc2ccc(C#N)cc2)n1 (stereo unspecified),6.36,< 3.57,> 268000,5.54,7.04,5.16,< 3.57,6.82,3.76,4.35,4.06,> 9240,7.54
Cc1cc(/C=C/C#N)cc(C)c1Oc1cc(NCCCN2CCOCC2)nc(Nc2ccc(C#N)cc2)c1,6.01,≤ 5.33,≥ 4720,6.28,8.25,6.12,≤ 5.33,6.96,5.30,6.15,5.11,≥ 992,8.32
C=CCNc1cc(Oc2c(C)cc(/C=C/C#N)cc2C)cc(Nc2ccc(C#N)cc2)n1,6.57,< 4.09,82100,6.20,7.57,5.96,< 4.09,7.37,≤ 4.24,4.52,4.50,8220,8.00
Cc1cc(/C=C/C#N)cc(C)c1Oc1cc(Cl)nc(Nc2ccc(C#N)cc2)n1,7.70,< 5.37,4310,8.06,8.62,7.96,7.32,8.03,6.80,7.36,7.10,2560,8.77
Cc1cc(/C=C/C#N)cc(C)c1Oc1cc(NCCC#N)nc(Nc2ccc(C#N)cc2)n1,7.70,6.49,1000,7.96,8.92,8.00,7.51,8.19,6.72,7.85,7.00,736,8.87
C=CCNc1cc(Oc2c(C)cc(/C=C/C#N)cc2C)nc(Nc2ccc(C#N)cc2)n1,7.52,< 5.52,3050,7.68,8.32,7.89,7.25,8.36,6.28,7.36,6.72,2000,8.82
COC(CNc1cc(Oc2c(C)cc(/C=C/C#N)cc2C)nc(Nc2ccc(C#N)cc2)n1)OC,6.77,,3470,,,,,,,,,,
Cc1ccnc2c1NC(=O)c1cccnc1N2C1CC1 [NEVIRAPINE],,,> 15000,5.49,4.99,,,6.55,,< 4.82,,,6.90
Cc1cc(/C=C/C#N)cc(C)c1Oc1cc(NCCN(C)C)nc(Nc2ccc(C#N)cc2)n1,8.00,< 5.52,3040,8.00,8.62,8.05,6.05,7.39,6.51,7.57,7.70,2050,8.83
Cc1cc(/C=C/C#N)cc(C)c1Oc1cc(Cl)nc(Nc2ccc(C#N)cc2)c1,6.74,< 3.51,> 312000,6.15,7.48,5.93,< 3.51,7.37,< 3.51,< 3.51,,> 39900,8.11
Cc1cc(C#N)cc(C)c1Oc1nc(Nc2ccc(C#N)cc2)nc(N)c1Br [ETRAVIRINE],,,,8.00,,7.70,7.68,,7.62,7.59,,,
Cc1cc(/C=C/C#N)cc(C)c1Oc1cc(NCCN(C)C)nc(Nc2ccc(C#N)cc2)c1,6.08,< 5.37,4270,6.72,8.57,6.74,< 5.37,6.01,< 5.37,6.64,5.61,2240,8.72
COCCNc1cc(Oc2c(C)cc(/C=C/C#N)cc2C)nc(Nc2ccc(C#N)cc2)n1,7.40,5.81,3190,8.03,8.77,8.03,7.29,8.19,6.66,7.38,6.64,2040,8.81
Cc1cn([C@H]2C[C@H](N=[N+]=[N-])[C@@H](CO)O2)c(=O)[nH]c1=O [ZIDOVUDINE],,8.09,> 7480,,,8.22,,7.74,,7.92,,> 658,7.94
Cc1cc(/C=C/C#N)cc(C)c1Oc1cc(NCCN2CCOCC2)nc(Nc2ccc(C#N)cc2)n1,6.85,5.85,3540,8.00,8.77,8.14,7.01,8.12,6.74,7.68,6.47,2310,8.81
